From patent US11414385B2, “Compounds and methods for treating, detecting, and identifying compounds to treat apicomplexan parasitic diseases” (The University of Chicago, priority 2015, dated 2022)
Read-outs that look alike come from different tables or passages of the source.

Columns and labels:
MDR1 = assay: in vitro; type: in vitro ADME; conditions: dog, MDCK-MDR1, MDCK-MDR1 Efflux Ratio
[1] = test system: P. falciparum strains D6, TM91-C235, W2, C2B; assay: Malaria SYBR Green I-Based Fluorescence (MSF) Assay; type: cell-based, Plasmodium falciparum; conditions: Plasmodium falciparum
Summary of the method: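 SYBR Green I fluorescence, proportional to parasite DNA, served as the proliferation read-out in a plate-based sensitivity assay. It was run on D6 (drug-sensitive), TM91-C235 (multi-drug resistant), W2 (chloroquine-resistant) and C2B (resistant to several drugs, including atovaquone).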

[2] = Microsomal metabolic stability, human; type: in vitro ADME; conditions: for half-life: human, liver microsomes
[3] = biological target: T1, Plasmodium falciparum bc1 complex cytochrome c reductase (Pfbc1) (Plasmodium falciparum, UniProt Q02768); assay: Pfbc1 native assay (cytochrome c reduction by parasite extract); type: biochemical; conditions: compound 1 μM, mean ± s.e.m. of 4 independent experiments
T1 construct: Parasite extract was then prepared by disruption with a sonicating probe; endogenous in cells; host or cells: P. falciparum 3D7 blood-stage parasites, saponin-freed and sonicated (crude parasite extract)
T1 sequence (Q02768 1-376): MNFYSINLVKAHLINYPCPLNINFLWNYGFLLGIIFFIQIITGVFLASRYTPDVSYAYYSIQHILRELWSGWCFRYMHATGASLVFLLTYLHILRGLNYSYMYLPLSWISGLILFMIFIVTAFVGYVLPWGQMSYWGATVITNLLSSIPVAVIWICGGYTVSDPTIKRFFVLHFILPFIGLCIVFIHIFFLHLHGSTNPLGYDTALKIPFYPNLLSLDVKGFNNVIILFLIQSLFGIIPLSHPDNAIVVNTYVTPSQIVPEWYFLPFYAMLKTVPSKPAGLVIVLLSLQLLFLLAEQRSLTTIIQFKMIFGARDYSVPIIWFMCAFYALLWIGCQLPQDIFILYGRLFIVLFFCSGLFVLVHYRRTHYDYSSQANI
Procedure: Plasmodium falciparum: 3D7 strain was obtained from the Liverpool School of Tropical Medicine. Protease cocktail inhibitor was obtained from Roche. Bradford protein assay dye reagent was obtained from Bio-Rad. All other reagents were obtained from Sigma-Aldrich. Decylubiquinol was produced as per Fisher et al. (Fisher et al. 2004)^21. In brief, 25 mg of decylubiquinone were dissolved in 400 μl of nitrogen-saturated hexane. An equal volume of aqueous 1 M sodium dithionite was added, and the mixture vortexed until colorless. The organic phase containing the decylubiquinol was collected, the solvent was evaporated under N2 and the decylubiquinol finally dissolved in 100 μl of 96% ethanol (acidified with 10 mM HCl). Concentrations of decylubiquinol was determined spectrophotometrically on a Cary 300 Bio UV/visible spectrophotometer (Varian, UK) from absolute spectra, using ε288-320=8.1 mM-1·cm^−1. Decylubiquinol was stored at −80° C. and used within two weeks.
The protocol for the preparation of parasite extract was adapted from Fisher et al. (Fisher et al. 2009)^22. Free parasites were prepared from infected erythrocytes pooled from five T75 flasks, by adding 5 volumes of 0.15% (w/v) saponin in phosphate-buffered saline (137 mM NaCl, 2.7 mM KCl, 1.76 mM K2HPO4, 8.0 mM Na2HPO4, 5.5 mM D-glucose, pH 7.4) for 5 min, followed by three washes by centrifugation in RPMI containing HEPES (25 mM), and a final resuspension in potassium phosphate buffer (50 mM K2HPO4, 50 mM KH2PO4, 2 mM EDTA, pH7.4) containing a protease inhibitor cocktail (Complete Mini; Roche). Parasite extract was then prepared by disruption with a sonicating probe for 5 s, followed by a 1 min rest period on ice to prevent the sample overheating. […] The protein concentration of the parasite extract was determined by Bradford protein assay (Bio-Rad).
Plasmodium falciparum bc1 complex cytochrome c reductase (Pfbc1) activity was measured by monitoring cytochrome c reduction at 550 versus 542 nm using a Cary 300 Bio UV-Visible Spectrophotometer (Varian, UK), using a protocol adapted from Fisher et al. (Fisher et al. 2009)^21-23. […]

[4] = Microsomal metabolic stability, mouse; type: in vitro ADME; conditions: for half-life: mouse, liver microsomes
[5] = D6 strain, read-out: Pf D6 IC50

Cc1[nH]c2c(c(=O)c1-c1ccc(Oc3ccc(OC(F)(F)F)cc3)cc1)CCCC2 [JAG21, 2-methyl-3-(4-(4-(trifluoromethoxy)phenoxy)phenyl)-5,6,7,8-tetrahydroquinolin-4(1H)-one]
efflux ratio (MDR1): < 1.5 | IC50 [1, 5]: 14.3 nM | IC50 ([1]; including all drug resistant strains, read-out: inhibitor of Plasmodium falciparum): 40 to 65 nM | Human liver microsomes T1/2 [2]: ∞ | remaining after 45 mins in human liver microsomes ([2]; 45 mins): > 99% | Inhibition of cytochrome c reduction (% atovaquone response) [3]: 86.4 ± 3.2 % atovaquone response | Mouse microsomal stability T1/2 [4]: 1.68 h

Cc1[nH]c2c(c(=O)c1-c1ccc(Oc3ccccc3)cc1)CCCC2 [MJM170]
efflux ratio (MDR1): < 1.5 | IC50 ([1]; C2B strain (multi-drug resistant, atovaquone resistant), read-out: P. falciparum IC50): 10 nM | IC50 ([1]; C2B strain, read-out: SYBR Green C2B IC50): 10 nM | IC50 ([1]; D6 strain (drug sensitive), read-out: P. falciparum IC50): 10 nM | IC50 [1, 5]: 10 nM | IC50 ([1]; D6 strain, read-out: SYBR Green D6 IC50): 10 nM | IC50 ([1]; TM91C235 strain (multi-drug resistant), read-out: P. falciparum IC50): 30 nM | IC50 ([1]; TM91C235 strain, read-out: SYBR Green C235 IC50): 30 nM | IC50 ([1]; W2 strain (chloroquine resistant), read-out: P. falciparum IC50): 30 nM | IC50 ([1]; W2 strain, read-out: SYBR Green W2 IC50): 30 nM | IC50 ([1]; wild type and multi-drug resistant, all strains, read-out: IC50 against P. falciparum): < 30 nM | Human microsomal stability T1/2 [2]: 2.438 h | half-life ([2]; read-out: Human liver microsomes T1/2): 2.44 h | half-life ([2]; read-out: Human microsomal stability T1/2): 2.43 h | inhibition at 1 µM ([3]; read-out: Inhibition of cytochrome c reduction (% atovaquone response)): 69.7 ± 11.3% | Mouse microsomal stability T1/2 [4]: 0.35 h | half-life ([4]; read-out: Mouse liver microsomes T1/2): 0.349 h | half-life ([4]; read-out: Mouse microsomal stability T1/2): 0.333 h
